Read-outs that look alike come from different tables or passages of the source.
Columns and labels:
giant foxtail = assay: Test B pre-/postemergence herbicide test; format: in vivo, Setaria faberi; conditions: Setaria faberi, 336 h; for pest or weed control at 125 g/ha: 125 g ai/ha; for pest or weed control at 500 g/ha: 500 g ai/ha
Outline: (§1)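 Formulation: non-phytotoxic solvent mix with surfactant. Timing: preemergence on seed and postemergence on 2–18 cm plants, applied concurrently. Readout after 13–15 d greenhouse: visual 0–100 control rating against controls.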

lambsquarters = assay: Test B pre-/postemergence herbicide test; format: in vivo, Chenopodium album; conditions: Chenopodium album, 336 h; for pest or weed control at 125 g/ha: 125 g ai/ha; for pest or weed control at 500 g/ha: 500 g ai/ha
Outline: as §1

rice = assay: Test B flooded paddy test; format: in vivo, Oryza sativa; conditions: Oryza sativa, 336 h, 1000 g ai/ha, visual rating, scale 0 to 100 (0 no effect, 100 complete control), 13 to 15 days, read-out: Rice plant response rating
Outline: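 Scale 0–100: zero equals no visible effect, 100 complete control, judged by eye relative to controls. Timing: 13 to 15 days in greenhouse post-treatment. Growth stage at spraying: two leaves (paddy) or one to four leaves, 2–18 cm (postemergence).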

barnyardgrass = assay: Test B flooded paddy test; format: in vivo, Echinochloa crus-galli; conditions: Echinochloa crus-galli, 336 h, 1000 g ai/ha, visual rating, scale 0 to 100 (0 no effect, 100 complete control), 13 to 15 days, read-out: Barnyardgrass plant response rating
Outline: (§2)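 Treated at 2-leaf (paddy) or 1–4-leaf, 2–18 cm (postemergence); greenhouse 13–15 d; visual score vs control, 0 none to 100 complete control; dash = not tested.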

[1] = test system: small flower umbrella sedge; assay: Test B flooded paddy test; format: in vivo, Cyperus difformis; conditions: Cyperus difformis, 336 h, 1000 g ai/ha, visual rating, scale 0 to 100 (0 no effect, 100 complete control), 13 to 15 days, read-out: Sedge, Umbrella plant response rating
Outline: as §2

wheat = assay: Test B postemergence herbicide test; format: in vivo, Triticum aestivum; conditions: Triticum aestivum, post-emergence, 336 h, postemergence, visual rating, scale 0 (no effect) to 100 (complete control), read-out: Wheat plant response rating
Outline: (§3)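 Plants grow to 1- to 4-leaf stage (2–18 cm) for postemergence spraying, or to 2-leaf stage for the paddy test. Formulated compound is applied. Greenhouse holding lasts 13–15 days. Response is scored visually relative to controls, 0 no effect to 100 complete control; a dash means no result.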

corn = assay: Test B pre-/postemergence herbicide test; format: in vivo, Zea mays; conditions: Zea mays; for plant injury at 125 g/ha: 125 g ai/ha
Outline: as §1

wild oat = assay: Test B postemergence herbicide test; format: in vivo, Avena fatua; conditions: Avena fatua, post-emergence, 336 h, postemergence, visual rating, scale 0 (no effect) to 100 (complete control), read-out: Oat, Wild plant response rating
Outline: as §3

ducksalad = assay: Test B flooded paddy test; format: in vivo, Heteranthera limosa; conditions: Heteranthera limosa, 336 h, 1000 g ai/ha, visual rating, scale 0 to 100 (0 no effect, 100 complete control), 13 to 15 days, read-out: Ducksalad plant response rating
Outline: as §2

morningglory = assay: Test B pre-/postemergence herbicide test; format: in vivo, Ipomoea coccinea; conditions: Ipomoea, 336 h, visual rating; for pest or weed control at 500 g/ha: 500 g ai/ha
Outline: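 Herbicidal effect was judged by eye on a 0–100 scale after plants stood 13 to 15 days in the greenhouse following pre- or postemergence treatment with surfactant-containing formulations.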

blackgrass = assay: Test B postemergence herbicide test; format: in vivo, Alopecurus myosuroides; conditions: Alopecurus myosuroides, post-emergence, 336 h, postemergence, visual rating, scale 0 (no effect) to 100 (complete control), read-out: Blackgrass plant response rating
Outline: as §2

large crabgrass = assay: Test B pre-/postemergence herbicide test; format: in vivo, Digitaria sanguinalis; conditions: Digitaria sanguinalis; for pest or weed control at 125 g/ha: 125 g ai/ha; for pest or weed control at 500 g/ha: 500 g ai/ha
Outline: as §1

velvetleaf = assay: Test B pre-/postemergence herbicide test; format: in vivo, Abutilon theophrasti; conditions: Abutilon theophrasti, 336 h; for pest or weed control at 125 g/ha: 125 g ai/ha; for pest or weed control at 500 g/ha: 500 g ai/ha
Outline: as §1

Surinam grass = assay: Test B pre-/postemergence herbicide test; format: in vivo, Urochloa decumbens; conditions: Urochloa decumbens; for pest or weed control at 125 g/ha: 125 g ai/ha; for pest or weed control at 500 g/ha: 500 g ai/ha
Outline: as §1

pigweed = assay: Test B pre-/postemergence herbicide test; format: in vivo, Amaranthus retroflexus; conditions: Amaranthus retroflexus, 336 h; for pest or weed control at 125 g/ha: 125 g ai/ha; for pest or weed control at 500 g/ha: 500 g ai/ha
Outline: as §1

[2] = post-emergence, postemergence, visual rating, scale 0 (no effect) to 100 (complete control), read-out: Foxtail, Giant plant response rating
[3] = post-emergence, postemergence, visual rating, scale 0 (no effect) to 100 (complete control), read-out: Lambsquarters plant response rating
[4] = post-emergence, postemergence, visual rating, scale 0 (no effect) to 100 (complete control), read-out: Crabgrass, Large plant response rating
[5] = post-emergence, postemergence, visual rating, scale 0 (no effect) to 100 (complete control), read-out: Velvetleaf plant response rating
[6] = post-emergence, postemergence, visual rating, scale 0 (no effect) to 100 (complete control), read-out: Surinam Grass plant response rating
[7] = post-emergence, postemergence, visual rating, scale 0 (no effect) to 100 (complete control), read-out: Pigweed plant response rating

CCc1nn(C(C)(C)C)cc1C(=O)Nc1cc(C(=O)N(C)C)ccc1F [Compound 222, N-[5-[(dimethylamino)carbonyl]-2-fluorophenyl]-1-(1,1-dimethylethyl)-3-ethyl-1H-pyrazole-4-carboxamide]
90%: pest or weed control at 500 g/ha (giant foxtail; pre-emergence, visual rating, 0 = no effect, 100 = complete control, read-out: Plant response rating, Foxtail, Giant) | plant injury at 1000 g/ha (rice) | pest or weed control at 1000 g/ha (barnyardgrass) | Corn plant response rating (crop injury, 0 = no effect, 100 = complete kill) at 500 g/ha (corn; pre-emergence, 500 g ai/ha, visual rating, 0 = no effect, 100 = complete control) | pest or weed control at 125 g/ha (large crabgrass; pre-emergence, 0 = no effect, 100 = complete control, read-out: Crabgrass, Large plant response rating (0 to 100 scale)) | pest or weed control at 125 g/ha (Surinam grass; pre-emergence, 0 = no effect, 100 = complete control, read-out: Surinam Grass plant response rating (0 to 100 scale)) | pest or weed control at 125 g/ha (pigweed; pre-emergence, 0 = no effect, 100 = complete control, read-out: Pigweed plant response rating (0 to 100 scale))
30%: pest or weed control at 500 g/ha (giant foxtail; [2]) | pest or weed control at 500 g/ha (Surinam grass; [6])
20%: plant injury at 500 g/ha (wheat; 500 g ai/ha) | plant injury at 500 g/ha (corn; post-emergence, postemergence, 500 g ai/ha, visual rating, scale 0 (no effect) to 100 (complete control), read-out: Corn plant response rating) | pest or weed control at 500 g/ha (wild oat; 500 g ai/ha) | pest or weed control at 500 g/ha (blackgrass; 500 g ai/ha) | pest or weed control at 500 g/ha (large crabgrass; [4])
80%: pest or weed control at 1000 g/ha (ducksalad) | pest or weed control at 500 g/ha (morningglory; post-emergence, postemergence, scale 0 (no effect) to 100 (complete control), read-out: Morningglory plant response rating)
0%: plant injury at 125 g/ha (wheat; 125 g ai/ha) | plant injury at 125 g/ha (corn; post-emergence, postemergence, visual rating, scale 0 (no effect) to 100 (complete control), read-out: Corn plant response rating) | pest or weed control at 125 g/ha (wild oat; 125 g ai/ha) | pest or weed control at 125 g/ha (blackgrass; 125 g ai/ha)
60%: pest or weed control at 125 g/ha (giant foxtail; pre-emergence, 0 = no effect, 100 = complete control, read-out: Foxtail, Giant plant response rating (0 to 100 scale)) | plant injury at 125 g/ha (corn; pre-emergence, 0 = no effect, 100 = complete control, read-out: Corn plant response rating (0 to 100 scale)) | pest or weed control at 500 g/ha (velvetleaf; [5]) | pest or weed control at 500 g/ha (pigweed; [7])
40%: pest or weed control at 125 g/ha (morningglory; post-emergence, postemergence, 125 g ai/ha, scale 0 (no effect) to 100 (complete control), read-out: Morningglory plant response rating) | pest or weed control at 125 g/ha (pigweed; [7])
50%: pest or weed control at 125 g/ha (lambsquarters; [3]) | pest or weed control at 125 g/ha (velvetleaf; [5])
100%: pest or weed control at 125 g/ha (lambsquarters; pre-emergence, 0 = no effect, 100 = complete control, read-out: Lambsquarters plant response rating (0 to 100 scale)) | pest or weed control at 500 g/ha (lambsquarters; pre-emergence, visual rating, 0 = no effect, 100 = complete control, read-out: Plant response rating, Lambsquarters) | pest or weed control at 500 g/ha (morningglory; pre-emergence, 0 = no effect, 100 = complete control, read-out: Plant response rating, Morningglory) | pest or weed control at 500 g/ha (large crabgrass; pre-emergence, visual rating, 0 = no effect, 100 = complete control, read-out: Plant response rating, Crabgrass, Large) | pest or weed control at 125 g/ha (velvetleaf; pre-emergence, 0 = no effect, 100 = complete control, read-out: Velvetleaf plant response rating (0 to 100 scale)) | pest or weed control at 500 g/ha (velvetleaf; pre-emergence, visual rating, 0 = no effect, 100 = complete control, read-out: Plant response rating, Velvetleaf) | pest or weed control at 500 g/ha (Surinam grass; pre-emergence, visual rating, 0 = no effect, 100 = complete control, read-out: Plant response rating, Surinam Grass) | pest or weed control at 500 g/ha (pigweed; pre-emergence, visual rating, 0 = no effect, 100 = complete control, read-out: Plant response rating, Pigweed)
10%: pest or weed control at 125 g/ha (giant foxtail; [2]) | pest or weed control at 125 g/ha (large crabgrass; [4]) | pest or weed control at 125 g/ha (Surinam grass; [6])
70%: pest or weed control at 500 g/ha (lambsquarters; [3]) | pest or weed control at 1000 g/ha [1]

From patent publication US20060069132A1, “Azolecarboxamide herbicides” (priority 2004, published 2006)
